The IC50 is the concentration that inhibits the measured activity by half.

Data set [1] is described as follows: toxicity in transgenic mouse hippocampal organotypic slice culture by visual inspection. Particulars: 25 μM to 400 μM, not toxic until this concentration, read-out: concentration at which toxicity became apparent by visual inspection. It is filed as cell-based, mice transgenic for β-APP751. On the procedure: Assessment of β-amyloid inhibitor activity and toxicity. Cultures are observed visually approximately every other day. Prior to the commencement of compound testing, on day 18 in culture, a three day test period was initiated in which media was conditioned by the untreated cultures. This media was collected and assayed for β-amyloid 1-40 and 1-42 levels using sensitive ELISAs. Organotypic cultures were then washed with media twice, and incubated for a further 3 day conditioning period in media supplemented with 25 μM to 400 μM MDL 28170, a protease inhibitor shown to inhibit total β-amyloid production in cell culture with an IC50 of 100 μM. MDL 28170 was applied from 100×stock solutions prepared in DMSO. Control culture received only DMSO. After conditioned media was collected at […], organotypic cultures were washed with serum free media twice and incubated for an additional 24 hours in serum free media in the continued presence of MDL 28170. This conditioned media was assayed for lactate dehydrogenase (LDH) activity. LDH is a ubiquitous cytosolic enzyme released into conditioned media only by unhealthy cells and is an index of viability and toxicity. High levels of LDH activity in serum require measurements to be made in serum free conditioned media. […]

The nature of data set [2]: toxicity in transgenic mouse hippocampal organotypic slice culture by LDH assay of serum free conditioned media. Conditions: 25 μM to 400 μM, 3 days, then additional 24 hours in serum free media, not toxic until this concentration, read-out: concentration at which toxicity became apparent by LDH assay. The class given is cell-based, mice transgenic for β-APP751. On the procedure: Detailed description of FIG. 4. Hippocampal organotypic slice cultures were prepared from mice transgenic for β-APP751. On day 21 in vitro, organotypic cultures were washed with media twice, and duplicate wells were incubated for a 3-day conditioning period in media supplemented with 25 μM to 400 μM MDL 28170, a protease inhibitor shown to inhibit total β-amyloid production in cell culture with an IC50 of 100 μM. MDL 28170 was applied from 100×stock solutions prepared in DMSO. Control culture received only DMSO. Conditioned media was collected at day 24 and assayed in duplicate for β-amyloid 1-40 using a sandwich ELISA. Organotypic cultures were washed with serum free media twice and incubated for an additional 24 hours in serum free media in the continued presence of MDL 28170. This conditioned media was assayed for lactate dehydrogenase (LDH) activity. LDH is a ubiquitous cytosolic enzyme released into conditioned media only by unhealthy cells and is an index of viability and toxicity. High levels of LDH activity in serum require measurements to be made in serum free conditioned media. Data points shown were calculated by first taking the mean of duplicate ELISA values for each well, and then calculating the mean of the values for the duplicate treatment wells.
Assessment of β-amyloid inhibitor activity and toxicity. Cultures are observed visually approximately every other day. […]

The subject of data set [3] is total β-amyloid production. Particulars: cited from earlier work.
Another data set concerns β-amyloid 1-40. Nature of the data set: β-amyloid 1-40 secretion by transgenic mouse hippocampal organotypic slice culture (sandwich ELISA). Particulars: 72 h; 25 μM to 400 μM, 3-day conditioning period, FIG. 4; read-out: IC50 for β-amyloid production by transgenic mouse hippocampal organotypic slice culture. The class given is cell-based. On the procedure:
Preparation of cultures. Ten day old mouse pups transgenic for the 751 amino acid isoform of human β-amyloid precursor protein (β-APP),programmed for neural expression by the neuron specific enolase promoter were used as tissue source for hippocampal organotypic slice cultures. Cultures were prepared as for rat brain slice organotypic cultures described in Example 1.
Preperation of cultures. Hippocampal organotypic slice cultures were prepared as described in example 2, from 10 day old mice transgenic for the 751 amino acid isoform of human β-amyloid precursor protein (β-APP), programmed for neural expression by the neuron specific enolase promoter and maintained in culture for 10 days.
Preparation of cultures. Hippocampal organotypic slice cultures are prepared from 10 day old mice transgenic for the 751 amino acid isoform of human β-amyloid precursor protein (β-APP), programmed for neural expression by the neuron specific enolase promoter as described in Example 2, and maintained in culture for 6 weeks.
Detailed description of FIG. 4. Hippocampal organotypic slice cultures were prepared from mice transgenic for β-APP751. […] Data points shown were calculated by first taking the mean of duplicate ELISA values for each well, and then calculating the mean of the values for the duplicate treatment wells. […]

Where a SMILES comes first, the peptide text is derived from it. The star is where a group is joined. Cbz = O=C(OCc1ccccc1)*

Turning to `CC(C)[C@H](NC(=O)OCc1ccccc1)C(=O)N[C@H](C=O)Cc1ccccc1` [MDL 28170] (Cbz-Val-Phe-aldehyde), the MCC in data set [1] and in data set [2] was 400 µM throughout. The IC50 is 100 µM in data set [3] (cell culture (monotypic cells), previously shown, read-out: IC50 for inhibition of total β-amyloid production in cell culture) and 100 µM in the data set with β-amyloid 1-40. The “reversibility of MDL activity on cultured monotypic cells” value in data set [3] (cultured monotypic cells) is listed as “reversible”.
